Measurements as given in ChEMBL document CHEMBL1152062, “Novel 4,5,6,7-tetrahydrobenzothiazole dopamine agonists display very low stereoselectivity in their interaction with dopamine receptors” (Bioorg Med Chem Lett, 1991).

How the values were obtained:
Rattus norvegicus [1] = experiment: Dose required to inhibit the synthesis of DOPA in rat brain was determined intraperitoneally; assay type: functional; settings: ip
Rattus norvegicus [2] = experiment: Percent inhibition of spontaneous DA neuronal firing in the substantia nigra of anesthetized rats was determined.; assay type: functional
D(2) dopamine receptor [3] = molecular target: T1, D(2) dopamine receptor (Rattus norvegicus, UniProt P61169); experiment: Affinity of the Compound for Dopamine receptor D2 in rat striatal membrane was determined in vitro using Dopamine agonist [3H]N-propylnorapomorphine as ligand; Value ranges from (204-360); assay type: cell membranes, Striatum
D(1A) dopamine receptor = D(1A) dopamine receptor (Rattus norvegicus, UniProt P18901); experiment: Affinity of the Compound for Dopamine D1 receptor in rat striatal membrane was determined in vitro using Dopamine Antagonist [3H]SCH-23390 as ligand.; assay type: cell membranes, Striatum
D(2) dopamine receptor [4] = molecular target: T1, D(2) dopamine receptor; experiment: Affinity of the Compound for Dopamine receptor D2 in rat striatal membrane was determined in vitro using Dopamine Antagonist [3H]spiperone as ligand; Value ranges from (580-1050); assay type: cell membranes, Striatum
D(2) dopamine receptor [5] = molecular target: T1, D(2) dopamine receptor; experiment: Affinity of the Compound for Dopamine receptor D2 in rat striatal membrane was determined in vitro using Dopamine agonist [3H]N-propylnorapomorphine as ligand; Value ranges from (70-150); assay type: cell membranes, Striatum
D(2) dopamine receptor [6] = molecular target: T1, D(2) dopamine receptor; experiment: Affinity of the Compound for Dopamine receptor D2 in rat striatal membrane was determined in vitro using Dopamine Antagonist [3H]spiperone as ligand; Value ranges from (270-500); assay type: cell membranes, Striatum
Rattus norvegicus [7] = experiment: Percent reversal of the increase in rat striatum DOPA accumulation produced by pretreatment with GBL (750 mg/kg ip) and NSD 1015 (100 mg/kg) when 2 mg/kg was administered.; assay type: functional
D(2) dopamine receptor [8] = molecular target: T1, D(2) dopamine receptor; experiment: Affinity of the Compound for Dopamine receptor D2 in rat striatal membrane was determined in vitro using Dopamine agonist [3H]N-propylnorapomorphine as ligand; Value ranges from (80-119); assay type: cell membranes, Striatum
D(2) dopamine receptor [9] = molecular target: T1, D(2) dopamine receptor; experiment: Affinity of the Compound for Dopamine receptor D2 in rat striatal membrane was determined in vitro using Dopamine Antagonist [3H]spiperone as ligand; Value ranges from (124-550); assay type: cell membranes, Striatum

D(1A) dopamine receptor, sequence (P18901 whole entry): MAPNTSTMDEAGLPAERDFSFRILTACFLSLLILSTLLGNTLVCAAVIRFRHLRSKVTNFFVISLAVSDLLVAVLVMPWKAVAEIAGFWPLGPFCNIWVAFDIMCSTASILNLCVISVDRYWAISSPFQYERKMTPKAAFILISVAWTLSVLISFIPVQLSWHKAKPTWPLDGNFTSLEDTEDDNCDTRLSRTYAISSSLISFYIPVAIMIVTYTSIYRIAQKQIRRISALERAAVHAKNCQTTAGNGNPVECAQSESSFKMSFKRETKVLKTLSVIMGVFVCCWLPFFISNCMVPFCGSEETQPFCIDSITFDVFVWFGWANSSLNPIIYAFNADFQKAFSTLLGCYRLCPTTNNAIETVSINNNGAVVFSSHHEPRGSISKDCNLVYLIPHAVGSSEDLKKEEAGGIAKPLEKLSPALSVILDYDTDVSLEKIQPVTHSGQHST
T1 sequence (P61169 whole entry): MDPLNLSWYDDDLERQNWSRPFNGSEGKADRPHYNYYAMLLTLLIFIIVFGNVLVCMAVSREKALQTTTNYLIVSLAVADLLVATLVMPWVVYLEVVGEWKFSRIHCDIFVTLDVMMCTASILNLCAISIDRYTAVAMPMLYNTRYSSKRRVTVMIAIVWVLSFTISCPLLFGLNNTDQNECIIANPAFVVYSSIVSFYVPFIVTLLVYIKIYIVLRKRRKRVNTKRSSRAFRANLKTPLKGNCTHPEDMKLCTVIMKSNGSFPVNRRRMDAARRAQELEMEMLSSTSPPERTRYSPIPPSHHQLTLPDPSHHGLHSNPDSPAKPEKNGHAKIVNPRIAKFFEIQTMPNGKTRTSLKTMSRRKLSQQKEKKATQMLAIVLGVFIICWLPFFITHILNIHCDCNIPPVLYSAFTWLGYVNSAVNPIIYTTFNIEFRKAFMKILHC

Compound	ED50 (Rattus norvegicus [1]) [mg/kg]	Inhibition (Rattus norvegicus [2]) [%]	IC50 (D(2) dopamine receptor [3]) [nM]	IC50 (D(1A) dopamine receptor) [nM]	IC50 (D(2) dopamine receptor [4]) [nM]	IC50 (D(2) dopamine receptor [5]) [nM]	IC50 (D(2) dopamine receptor [6]) [nM]	Reversal (Rattus norvegicus [7]) [%]	IC50 (D(2) dopamine receptor [8]) [nM]	IC50 (D(2) dopamine receptor [9]) [nM]
Nc1nc2c(s1)C[C@@H](N1CCN(c3ccccn3)CC1)CC2	4.8	100	280	> 15000	800	–	–	–	–	–
Nc1nc2c(s1)C[C@H](N1CCN(c3ccccn3)CC1)CC2	7	85	–	> 15000	–	105	440	–	–	–
CN1CCc2cccc3c2[C@H]1Cc1ccc(O)c(O)c1-3 [APOMORPHINE]	–	100	–	–	–	–	–	100	–	–
Nc1nc2c(s1)CC(N1CCN(c3ccccn3)CC1)CC2 (racemic)	4.4	97	–	> 15000	–	–	–	–	100	320
